In patent publication US7468384B2, “Microbicidal composition” (Rohm and Haas Company, priority 2004, dated 2008):

Assays:
Format in all cases: cell-based
[1] = system: Aspergillus niger (A. niger—ATCC 16404); test: Synergy test, microtiter plate high resolution MIC assay, mold; set-up: key to SI (calculated synergy index) / SI (synergy index): SI = Qa/QA + Qb/QB (mixture vs. alone end-point concentrations); conditions: A. niger 16404, PDB; for Qa: BIT concentration giving end point (MIC); for Qa (BIT at end point, MIC): alone where Qb = 0
How it was run: (§1)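 Broth microdilution MICs (PDB for C. albicans and A. niger, 5×10^5 fungi/mL; TSB or M9GY for P. aeruginosa, ~5×10^6 bacteria/mL), combinations across 2–10,000 ppm active.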

[2] = system: Candida albicans (C. albicans—ATCC 10231); test: Synergy test, microtiter plate high resolution MIC assay, yeast; conditions: C. albicans 10231, PDB; for Qa: BIT concentration giving end point (MIC); for Qa (BIT at end point, MIC): alone where Qb = 0
How it was run: as §1

[3] = system: Pseudomonas aeruginosa (P. aeruginosa—ATCC #15442); test: Synergy test, microtiter plate high resolution MIC assay, bacterium; set-up: key to SI (calculated synergy index) / SI (synergy index): SI = Qa/QA + Qb/QB (mixture vs. alone end-point concentrations); conditions: P. aeruginosa 15442, M9GY; for Qa: BIT concentration giving end point (MIC); for Qa (BIT at end point, MIC): alone where Qb = 0
How it was run: as §1

[4] = system: Escherichia coli (E. coli—ATCC #8739); test: as above; conditions: E. coli 8739, M9GY; for Qa: BIT concentration giving end point (MIC); for Qa (BIT at end point, MIC): alone where Qb = 0
How it was run: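 Synergy against Escherichia coli ATCC #8739 was assessed in standard microtiter plates with M9GY medium, a minimal salt medium supplemented with 0.2% glucose and 0.1% yeast extract. The inoculum was about 5×10^6 bacteria per mL. MICs for each agent alone and in mixtures were combined into a synergy index, Qa/QA+Qb/QB.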

[5] = alone or mixed with benzyl alcohol, 48 hours
[6] = alone or mixed with caprylyl glycol, 24 hours
[7] = alone or mixed with glutaraldehyde, 24 hours
[8] = Table 24, BIT with Cis-1-(3-chloroallyl)-3,5,7-triaza-1-azoniaadamantane chloride, 24 hours
[9] = Table 25, BIT with sodium dehydroacetic acid, 24 hours
[10] = synergy index BIT + benzyl alcohol, 48 hours
[11] = synergy index BIT + caprylyl glycol, 24 hours
[12] = synergy index BIT + glutaraldehyde, 24 hours
[13] = alone or mixed with Imidalozidinyl urea, 48 hours
[14] = alone or mixed with diazolidinyl urea, 48 hours
[15] = Table 26, BIT with sodium benzoate, 24 hours
[16] = synergy index BIT + Imidalozidinyl urea, 48 hours
[17] = synergy index BIT + diazolidinyl urea, 48 hours

`O=c1[nH]sc2ccccc12` [BIT, 1,2-benzisothiazolin-3-one] gave a Qa ([1]; alone or mixed with 2,2′-dithiobis(N-methylbenzamide), 3 days) of 20 ppm, a Qa ([1]; alone or mixed with EDTA, 4 days) of 20 ppm and a Qa ([1]; alone or mixed with Imidalozidinyl urea, 3 days) of 20 ppm. For the same molecule, the Qa ([1]; alone or mixed with benzyl alcohol, 1 week) was 50 ppm, the Qa ([1]; alone or mixed with caprylyl glycol, 1 week) was 50 ppm and the Qa ([1]; alone or mixed with chlorphenesin, 1 week) was 50 ppm. The Qa ([1]; alone or mixed with diazolidinyl urea, 3 days) was 20 ppm, the Qa ([1]; alone or mixed with ethylparaben, 3 days) was 20 ppm and the Qa ([1]; alone or mixed with glutaraldehyde, 3 days) was 20 ppm. The Qa ([1]; alone or mixed with methylparaben, 4 days) was 30 ppm, the Qa ([1]; alone or mixed with phenoxyethanol, 3 days) was 20 ppm and the “SI (calculated synergy index)” value ([1]; Table 8, 1 week) was 1.00. The “Qa: end-point activity (MIC) of BIT in the mixture (BIT alone, QA, where Qb = 0)” value (“Qa: end-point activity (MIC) of BIT” for short) ([1]; Table 8, 1 week, B = Benzalkonium chloride) was 30 ppm, the “SI (calculated synergy index)” value ([1]; Table 9, 4 days) was 1.00 and the “Qa: end-point activity (MIC) of BIT” value ([1]; Table 9, 4 days, B = Benzethonium chloride) was 30 ppm. For the same molecule, the “SI (synergy index)” value ([1]; Table 21, 4 days) was 1.00, the “Qa (BIT at end point, MIC)” value ([1]; Table 21, BIT with Linoleamidopropyl PG-dimonium chloride phosphate, 4 days) was 30 ppm and the “SI (synergy index)” value ([1]; Table 22, 1 week) was 1.00. The “Qa (BIT at end point, MIC)” value ([1]; Table 22, BIT with Cocamidopropyl PG-dimonium chloride phosphate, 1 week) was 30 ppm, the “SI (synergy index)” value ([1]; Table 23, 3 days) was 1.00 and the “Qa (BIT at end point, MIC)” value ([1]; Table 23, BIT with propylparaben, 3 days) was 20 ppm. For the same molecule, the “SI (synergy index)” value ([1]; Table 24, 3 days) was 1.00, the “Qa (BIT at end point, MIC)” value ([1]; Table 24, BIT with Cis-1-(3-chloroallyl)-3,5,7-triaza-1-azoniaadamantane chloride, 3 days) was 30 ppm and the “SI (synergy index)” value ([1]; Table 25, 1 week) was 1.00. The “Qa (BIT at end point, MIC)” value ([1]; Table 25, BIT with sodium dehydroacetic acid, 1 week) was 30 ppm, the “SI (synergy index)” value ([1]; Table 26, 1 week) was 1.00 and the “Qa (BIT at end point, MIC)” value ([1]; Table 26, BIT with sodium benzoate, 1 week) was 30 ppm. For the same molecule, the “SI (synergy index)” value ([1]; Table 27, 3 days) was 1.00, the “Qa (BIT at end point, MIC)” value ([1]; Table 27, BIT with Sodium hydroxymethylglycinate, 3 days) was 20 ppm and the “SI (synergy index)” value ([1]; Table 28, 1 week) was 1.00. The “Qa (BIT at end point, MIC)” value ([1]; Table 28, BIT with zinc pyrithione, 1 week) was 30 ppm, the SI ([1]; synergy index BIT + 2,2′-dithiobis(N-methylbenzamide), 3 days) was 1.00 and the SI ([1]; synergy index BIT + EDTA, 4 days) was 1.00. The SI ([1]; synergy index BIT + Imidalozidinyl urea, 3 days) was 1.00, the SI ([1]; synergy index BIT + benzyl alcohol, 1 week) was 1.00 and the SI ([1]; synergy index BIT + caprylyl glycol, 1 week) was 1.00. For the same molecule, the SI ([1]; synergy index BIT + chlorphenesin, 1 week) was 1.00, the SI ([1]; synergy index BIT + diazolidinyl urea, 3 days) was 1.00 and the SI ([1]; synergy index BIT + ethylparaben, 3 days) was 1.00. For the same molecule, the SI ([1]; synergy index BIT + glutaraldehyde, 3 days) was 1.00, the SI ([1]; synergy index BIT + methylparaben, 4 days) was 1.00 and the SI ([1]; synergy index BIT + phenoxyethanol, 3 days) was 1.00. For the same molecule, the Qa ([2]; alone or mixed with Imidalozidinyl urea, 24 hours) was 30 ppm, the Qa [2, 5] was 30 ppm and the Qa [2, 6] was 30 ppm. For the same molecule, the Qa ([2]; alone or mixed with diazolidinyl urea, 24 hours) was 30 ppm, the Qa [2, 7] was 30 ppm and the “Qa (BIT at end point, MIC)” value [2, 8] was 20 ppm. The “SI (synergy index)” value ([2]; Table 24, 24 hours) was 1.00, the “Qa (BIT at end point, MIC)” value [2, 9] was 30 ppm and the “SI (synergy index)” value ([2]; Table 25, 24 hours) was 1.00. For the same molecule, the “Qa (BIT at end point, MIC)” value ([2]; Table 26, BIT with sodium benzoate, 48 hours) was 30 ppm, the “SI (synergy index)” value ([2]; Table 26, 48 hours) was 1.00 and the SI ([2]; synergy index BIT + Imidalozidinyl urea, 24 hours) was 1.00. It also gave an SI [2, 10] of 1.00, an SI [2, 11] of 1.00 and an SI ([2]; synergy index BIT + diazolidinyl urea, 24 hours) of 1.00. It also gave an SI [2, 12] of 1.00, a Qa ([3]; alone or mixed with 2,2′-dithiobis(N-methylbenzamide), 48 hours) of 100 ppm and a Qa [3, 13] of 100 ppm. For the same molecule, the Qa [3, 5] was 100 ppm, the Qa [3, 6] was 100 ppm and the Qa ([3]; alone or mixed with chlorphenesin, 72 hours) was 100 ppm. For the same molecule, the Qa [3, 14] was 100 ppm, the Qa ([3]; alone or mixed with ethylparaben, 48 hours) was 100 ppm and the Qa ([3]; alone or mixed with glutaraldehyde, 48 hours) was 60 ppm. The Qa ([3]; alone or mixed with methylparaben, 48 hours) was 100 ppm, the Qa ([3]; alone or mixed with phenoxyethanol, 48 hours) was 100 ppm and the “SI (calculated synergy index)” value ([3]; Table 8, 48 hours) was 1.00. For the same molecule, the “Qa: end-point activity (MIC) of BIT” value ([3]; Table 8, 48 hours, B = Benzalkonium chloride) was 100 ppm, the “SI (calculated synergy index)” value ([3]; Table 9, 48 hours) was 1.00 and the “Qa: end-point activity (MIC) of BIT” value ([3]; Table 9, 48 hours, B = Benzethonium chloride) was 100 ppm. For the same molecule, the “Qa (BIT at end point, MIC)” value ([3]; Table 21, BIT with Linoleamidopropyl PG-dimonium chloride phosphate, 48 hours) was 100 ppm, the “SI (synergy index)” value ([3]; Table 21, 48 hours) was 1.00 and the “Qa (BIT at end point, MIC)” value ([3]; Table 22, BIT with Cocamidopropyl PG-dimonium chloride phosphate, 72 hours) was 100 ppm. For the same molecule, the “SI (synergy index)” value ([3]; Table 22, 72 hours) was 1.00, the “Qa (BIT at end point, MIC)” value ([3]; Table 23, BIT with propylparaben, 24 hours) was 80 ppm and the “SI (synergy index)” value ([3]; Table 23, 24 hours) was 1.33. The “Qa (BIT at end point, MIC)” value [3, 8] was 60 ppm, the “SI (synergy index)” value ([3]; Table 24, 24 hours) was 1.00 and the “Qa (BIT at end point, MIC)” value [3, 9] was 60 ppm. The “SI (synergy index)” value ([3]; Table 25, 24 hours) was 1.00, the “Qa (BIT at end point, MIC)” value [3, 15] was 60 ppm and the “SI (synergy index)” value ([3]; Table 26, 24 hours) was 1.00. The “Qa (BIT at end point, MIC)” value ([3]; Table 27, BIT with Sodium hydroxymethylglycinate, 24 hours) was 60 ppm, the “SI (synergy index)” value ([3]; Table 27, 24 hours) was 1.00 and the “Qa (BIT at end point, MIC)” value ([3]; Table 28, BIT with zinc pyrithione, 48 hours) was 100 ppm. For the same molecule, the “SI (synergy index)” value ([3]; Table 28, 48 hours) was 1.00, the SI ([3]; synergy index BIT + 2,2′-dithiobis(N-methylbenzamide), 48 hours) was 1.00 and the SI [3, 16] was 1.00. For the same molecule, the SI [3, 10] was 1.00, the SI [3, 11] was 1.00 and the SI ([3]; synergy index BIT + chlorphenesin, 72 hours) was 1.00. For the same molecule, the SI [3, 17] was 1.00, the SI ([3]; synergy index BIT + ethylparaben, 48 hours) was 1.00 and the SI ([3]; synergy index BIT + glutaraldehyde, 48 hours) was 1.00. It also gave an SI ([3]; synergy index BIT + methylparaben, 48 hours) of 1.00, an SI ([3]; synergy index BIT + phenoxyethanol, 48 hours) of 1.00 and a Qa [4, 13] of 7.5 ppm. It also gave a Qa ([4]; alone or mixed with benzyl alcohol, 24 hours) of 7.5 ppm, a Qa [4, 6] of 7.5 ppm and a Qa [4, 14] of 8 ppm. The Qa [4, 7] was 10 ppm, the “Qa (BIT at end point, MIC)” value ([4]; Table 24, BIT with Cis-1-(3-chloroallyl)-3,5,7-triaza-1-azoniaadamantane chloride, 48 hours) was 10 ppm and the “SI (synergy index)” value ([4]; Table 24, 48 hours) was 1.00. For the same molecule, the “Qa (BIT at end point, MIC)” value [4, 9] was 7.5 ppm, the “SI (synergy index)” value ([4]; Table 25, 24 hours) was 1.00 and the “Qa (BIT at end point, MIC)” value [4, 15] was 7.5 ppm. For the same molecule, the “SI (synergy index)” value ([4]; Table 26, 24 hours) was 1.00, the SI [4, 16] was 1.00 and the SI ([4]; synergy index BIT + benzyl alcohol, 24 hours) was 1.00. It also gave an SI [4, 11] of 1.00, an SI [4, 17] of 1.00 and an SI [4, 12] of 1.00.
